The record followed here is patent publication US9993001B2, “Herbicidal composition” (ISHIHARA SANGYO KAISHA, LTD., priority 2014, dated 2018).

Holding throughout (type): in vivo
Assay [1] relates to barnyardgrass (Echinochloa crus-galli L.). Put plainly: Test Example 32: pot, soil treatment, metobromuron + chlorpropham. Particulars: soil, read-out: Growth inhibition rate of barnyardgrass (%) Measured value. An excerpt:
(§1) When the herbicidal activity in a case where two active ingredients are combined, is larger than the simple sum of the respective herbicidal activities of the two active ingredients (the expected activity), it is called a synergistic effect. The activity expected by the combination of two active ingredients can be calculated as follows (Colby S. R., “Weed”, vol. 15, p. 20-22, 1967). E=α+β−(α×β[…]) where α: growth inhibition rate when treated with x (g/ha) of herbicide X, • β: growth inhibition rate when treated with y (g/ha) of herbicide Y, • E: growth inhibition rate expected when treated with x (g/ha) of herbicide X and y (g/ha) of herbicide Y.
(§2) On the 19th day after treatment, the state of growth of barnyardgrass was visually observed and evaluated in accordance with the following standards. The growth inhibition rate (%) [measured value] and the growth inhibition rate (%) [calculated value] calculated by the Colby's method, are shown in Table 2.
(§3) Growth inhibition rate (%)=inhibition rate) (%) of 0 (equivalent to the non-treated area) to 100 (complete kill)
Soil was put into a 1/300,000 ha pot, and seeds of barnyardgrass (Echinochloa crus-galli L.) were sown. On the day after seeding, predetermined amounts of SC containing metobromuron as active ingredient (same as in Test Example 1) and EC containing chlorpropham as active ingredient (same as in Test Example 1) were diluted with water corresponding to 1,000 L per hectare and applied for soil treatment.
On the 26th day after treatment, the state of growth of barnyardgrass was visually observed and evaluated in the same manner as in Test Example 1.

The test system of assay [2] is polygonaceae weeds. Put plainly: Test Example 10: corn field, soil treatment, metobromuron + pendimethalin. Particulars: soil, read-out: Growth inhibition rate of Polygonaceae weeds (%) Measured value.
From the text: as §1, §2
Growth inhibition rate (%)=inhibition rate) (%) of 0 (equivalent to the non-treated area) to 100 (complete kill) […]
On the 49th day after treatment, the state of growth of polygonaceae weeds which occurred naturally, was visually observed and evaluated in the same manner as in Test Example 1, The results are shown in Table 11.

Assay [3] concerns common lambsquarters (Chenopodium album L.). Kind of assay: Test Example 30: pot, soil treatment, metobromuron + thiobencarb. The settings on record: soil, read-out: Growth inhibition rate of common lambsquarters (%) Measured value.
From the text: as §1, §2, §3
Soil was put into a 1/300,000 ha pot, and seeds of common lambsquarters (Chenopodium album L.) were sown. On the day after seeding, predetermined amounts of SC containing metobromuron as active ingredient (same as in Test Example 1) and EC containing thiobencarb as active ingredient (trade name: Saturn NYUZAI, manufactured by KUMIAI CHEMICAL INDUSTRY Co., Ltd.) were diluted with water corresponding to 1,000 L per hectare and applied for soil treatment.
On the 20th day after treatment, the state of growth of common lambsquarters was visually observed and evaluated in the same manner as in Test Example 1.

In assay [4] the test system is velvetleaf (Abutilon theophrasti MEDIC.). Kind of assay: Test Example 13: pot, soil treatment, metobromuron + pyroxasulfone. The settings on record: soil, read-out: Growth inhibition rate of velvetleaf (%) Measured value.
From the text: as §1, §2, §3
Soil was put into a 1/300,000 ha pot, and seeds of velvetleaf (Abutilon theophrasti MEDIC.) were sown. Prior to germination of velvetleaf, predetermined amounts of SC containing metobromuron as active ingredient (same as in Test Example 1) and WG containing pyroxasulfone as active ingredient (trade name: Sakura 850 WG, manufactured by Bayer CropScience) were diluted with water corresponding to 1,000 L per hectare and applied for soil treatment.
On the 12th day after treatment, the state of growth of velvetleaf was visually observed and evaluated in the same manner as in Test Example 1.

In assay [5] the test system is black nightshade (Solanum nigrum L.). Kind of assay: Test Example 26: pot, soil treatment, metobromuron + prosulfocarb. The settings on record: soil, read-out: Growth inhibition rate of black nightshade (%) Measured value.
From the text: as §1, §2, §3
Soil was put into a 1/300,000 ha pot, and seeds of black nightshade (Solanum nigrum L.) were sown. On the day after seeding, predetermined amounts of SC containing metobromuron as active ingredient (same as in Test Example 1) and EC containing prosulfocarb as active ingredient (trade name: BOXER NYUZAI, manufactured by Syngenta) were diluted with water corresponding to 1,000 L per hectare and applied for soil treatment.
On the 21st day after treatment, the state of growth of black nightshade was visually observed and evaluated in the same manner as in Test Example 1.

For orientation: inhibition means the relative decrease from the control value, in per cent. On to `CON(C)C(=O)Nc1ccc(Br)cc1` [Metobromuron, 3-(4-bromophenyl)-1-methoxy-1-methylurea], for which the inhibition at 375 g/ha in assay [1] came out at 40%. Moreover, the inhibition at 1000 g/ha in assay [2] is 30%. The inhibition at 250 g/ha in assay [3] worked out at 78%. Moreover, in assay [4], the inhibition at 375 g/ha worked out at 28%, the inhibition at 750 g/ha turned out to be 55% and the inhibition at 1500 g/ha amounted to 74%. Besides, in assay [5], the inhibition at 250 g/ha came out at 25%, the inhibition at 375 g/ha stood at 50% and the inhibition at 562.5 g/ha was 68%.
